ChEMBL document CHEMBL1201862, “PubChem BioAssay data set” (2004)
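Five concentrations, 48 hours, 96-well plates. Here, GI50 denotes the concentration required for 50% inhibition of growth.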 Active and inactive are the calls of the source. Cut-off read from the data, not from the text of the source: active = GI50 up to about 1.1 µM and inactive = higher.

Legend:
Assay in all cases: inhibition of tumour cell growth, NCI panel, 48 h
SF-268 = system: SF-268
UACC-62 = system: UACC-62
COLO 205 = system: COLO 205
SNB-19 = system: SNB-19
786-0 = system: 786-0
HCT-116 = system: HCT-116
K562 = system: K562
ACHN = system: ACHN
OVCAR-3 = system: OVCAR-3
MDA-MB-231 = system: MDA-MB-231
OVCAR-4 = system: OVCAR-4
HOP-62 = system: HOP-62
HOP-92 = system: HOP-92
NCI-H522 = system: NCI-H522
UO-31 = system: UO-31
KM12 = system: KM12
T47D = system: T47D
SNB-75 = system: SNB-75
IGROV-1 = system: IGROV-1

Measured: GI50

NC(=O)NC(=O)c1cnccn1
inactive: SF-268 > 100 µM | UACC-62 > 100 µM | COLO 205 > 10 µM | SNB-19 > 100 µM | 786-0 > 100 µM | HCT-116 > 100 µM | K562 > 100 µM | ACHN > 100 µM | OVCAR-3 > 100 µM | MDA-MB-231 > 100 µM | OVCAR-4 > 100 µM | HOP-62 > 100 µM | HOP-92 > 100 µM | NCI-H522 > 100 µM | UO-31 > 100 µM | KM12 > 100 µM

N=c1oc2ccccc2cc1C(=O)Nc1ccccn1
inactive: SF-268 > 100 µM | UACC-62 58.6 µM | COLO 205 > 100 µM | SNB-19 > 100 µM | 786-0 37.8 µM | HCT-116 51.9 µM | K562 > 100 µM | ACHN 53.1 µM | T47D 43.7 µM | OVCAR-3 > 100 µM | SNB-75 > 100 µM | MDA-MB-231 > 100 µM | OVCAR-4 > 100 µM | HOP-62 63 µM | IGROV-1 51.9 µM | HOP-92 > 100 µM | KM12 56.5 µM

CC(C)(C)N/C(N)=N/C#N
inactive: SF-268 > 100 µM | UACC-62 > 100 µM | COLO 205 > 100 µM | SNB-19 > 100 µM | 786-0 > 100 µM | HCT-116 > 100 µM | K562 > 100 µM | ACHN > 100 µM | SNB-75 > 100 µM | MDA-MB-231 > 100 µM | OVCAR-4 > 100 µM | HOP-62 > 100 µM | IGROV-1 > 100 µM | HOP-92 > 100 µM | UO-31 > 100 µM

COc1ccc(/C=C2\S/C(=N/Nc3nc(-c4ccccc4)cs3)NC2=O)cc1OC
inactive: SF-268 29 µM | UACC-62 23.6 µM | COLO 205 35.6 µM | SNB-19 25.6 µM | 786-0 28.4 µM | HCT-116 17.1 µM | ACHN 24.7 µM | OVCAR-3 15.9 µM | SNB-75 22.8 µM | MDA-MB-231 21.9 µM | OVCAR-4 27.2 µM | HOP-62 22.1 µM | IGROV-1 12.6 µM | HOP-92 12.6 µM | NCI-H522 18.5 µM | UO-31 15.6 µM | KM12 24.5 µM

CN(C)CCOC1(Cc2ccc(Cl)cc2Cl)CCC(C(C)(C)C)CC1 (configuration not stated)
inactive: SF-268 5.01 µM | UACC-62 2.12 µM | COLO 205 1.62 µM | SNB-19 1.75 µM | 786-0 1.83 µM | HCT-116 1.6 µM | K562 1.6 µM | ACHN 2.99 µM | OVCAR-3 1.71 µM | SNB-75 1.67 µM | MDA-MB-231 7 µM | OVCAR-4 1.81 µM | HOP-62 1.74 µM | IGROV-1 3.44 µM | NCI-H522 1.79 µM | KM12 1.77 µM

NC(=O)c1ccccc1NC(=O)C(=O)Cc1nc2ccccc2nc1O
inactive: SF-268 > 100 µM | UACC-62 > 100 µM | COLO 205 > 100 µM | SNB-19 > 100 µM | 786-0 > 100 µM | HCT-116 > 100 µM | K562 > 100 µM | ACHN > 100 µM | OVCAR-3 > 100 µM | SNB-75 60.8 µM | OVCAR-4 > 100 µM | HOP-62 > 100 µM | IGROV-1 > 100 µM | HOP-92 98.6 µM | NCI-H522 > 100 µM | UO-31 > 100 µM | KM12 71.8 µM

CCOC(=O)C1OC(=O)CC1C1(C(=O)OCC)C=CC(=O)O1 (configuration not stated)
inactive: SF-268 > 100 µM | UACC-62 > 100 µM | COLO 205 > 100 µM | SNB-19 > 100 µM | 786-0 > 100 µM | HCT-116 > 100 µM | K562 > 100 µM | ACHN > 100 µM | OVCAR-3 > 100 µM | SNB-75 > 100 µM | OVCAR-4 > 100 µM | HOP-62 > 100 µM | IGROV-1 > 100 µM | HOP-92 > 100 µM | NCI-H522 > 100 µM | UO-31 > 100 µM | KM12 > 100 µM

O=C(Cn1c(C(=O)/C=C/c2ccc(Cl)c(Cl)c2)nc2ccccc21)c1ccccc1
inactive: SF-268 45.4 µM | UACC-62 31 µM | COLO 205 17.8 µM | SNB-19 27.4 µM | 786-0 18.8 µM | HCT-116 15.9 µM | K562 33.7 µM | ACHN 28 µM | T47D 31 µM | OVCAR-3 15.2 µM | MDA-MB-231 22.7 µM | OVCAR-4 25.6 µM | HOP-62 26 µM | IGROV-1 22.6 µM | HOP-92 25.2 µM | UO-31 24.8 µM | KM12 19.6 µM
